What was measured:
h-GABA-A α5β3γ2 [1] = biological target: T1, h-GABA-A α5β3γ2 (Homo sapiens, UniProt P18507+P31644); assay: [3H]flumazenil competition binding assay, membranes of HEK293 cells expressing GABAA receptors; settings: displacement of [3H]-Flumazenil 0.5 nM, HEK293 cells expressing human receptors, mean of two determinations; Table 1
How it was run: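 Membranes from HEK293 cells transiently expressing human α5β3γ2 GABAA receptors, in Krebs-tris buffer pH 7.5, competed against [3H]flumazenil for 1 hour at 4° C to equilibrium. Bound radioactivity collected on GF/C filters and counted by liquid scintillation; Ki values are means of two determinations.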

h-GABA-A α5β3γ2 [2] = biological target: T1, h-GABA-A α5β3γ2; assay: Two-electrode voltage clamp electrophysiology in Xenopus laevis oocytes expressing GABAA receptors, modulation of GABA EC20 current; type: cell-based; design: host or cells: Xenopus laevis oocytes micro-injected with RNA transcripts of the subunits; settings: Table 1; for Efficacy (GABA) %: % modulation of GABA EC20 = 100*(Fold increase-1); for Fold increase h-GABA-A α5β3γ2 oocyte: test compound at approx. 30 fold its Ki, GABA at EC20
How it was run: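 Human α5β3γ2 GABAA receptors were expressed in Xenopus oocytes by RNA injection, with γ2 RNA 5–10-fold higher, and recorded 3–5 days later by two-electrode voltage clamp at −80 mV at room temperature. The test compound, at about 30× its Ki, was co-applied during a second GABA EC20 pulse. Efficacy is the extremum of the point-by-point ratio to the first response, expressed as 100*(Fold increase−1).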

| SMILES | Ki (h-GABA-A α5β3γ2 [1]) | Efficacy (GABA) % (h-GABA-A α5β3γ2 [2]) | Fold increase h-GABA-A α5β3γ2 oocyte (h-GABA-A α5β3γ2 [2]) |
| --- | --- | --- | --- |
| Cc1onc(-c2ccc(Cl)cn2)c1Cn1ncc(N2CC3(CCCO3)C2)cc1=O [Example 144, 2-((3-(5-Chloropyridin-2-yl)-5-methylisoxazol-4-yl)methyl)-5-(5-oxa-2-azaspiro[3.4]octan-2-yl)pyridazin-3(2H)-one] | 0.0032 µM | 20% | 1.2 |
| Cc1ccc(-c2noc(C)c2Cn2ncc(-c3cnn(CC4CC4)c3)cc2=O)cn1 [Example 157, 5-(1-(cyclopropylmethyl)-1H-pyrazol-4-yl)-2-((5-methyl-3-(6-methylpyridin-3-yl)isoxazol-4-yl)methyl)pyridazin-3(2H)-one] | 0.0227 µM | 86% | 1.86 |
| Cc1ccc(-c2noc(C)c2Cn2ncc(N(C)C3CC3)cc2=O)cn1 [Example 64, 5-(cyclopropyl(methyl)amino)-2-((5-methyl-3-(6-methylpyridin-3-yl)isoxazol-4-yl)methyl)pyridazin-3(2H)-one] | 0.0018 µM | 108% | 2.08 |
| Cc1onc(-c2ccc(Cl)nc2)c1Cn1ncc(N2CC3(C[C@@H](F)CO3)C2)cc1=O [Example 230, (R)-2-((3-(6-chloropyridin-3-yl)-5-methylisoxazol-4-yl)methyl)-5-(7-fluoro-5-oxa-2-azaspiro[3.4]octan-2-yl)pyridazin-3(2H)-one] | 0.0451 µM | 127% | 2.27 |
| Cc1ccc(-c2noc(C)c2Cn2ncc(-c3cncc(Cl)c3)cc2=O)cn1 [Example 148, 5-(5-chloro-3-pyridyl)-2-((5-methyl-3-(6-methyl-3-pyridyl)isoxazol-4-yl)methyl)pyridazin-3-one] | 0.0084 µM | 248% | 3.48 |
| Cc1ccc(-c2noc(C)c2Cn2ncc(N3CC(OC(F)F)C3)cc2=O)cn1 [Example 168, 5-[3-(difluoromethoxy)azetidin-1-yl]-2-[[5-methyl-3-(6-methyl-3-pyridyl)isoxazol-4-yl]methyl]pyridazin-3-one] | 0.0094 µM | 140% | 2.4 |
| COc1cc(-c2cnn(Cc3c(-c4cnc(C)c(F)c4)noc3C)c(=O)c2)ccn1 [Example 207, 2-((3-(5-fluoro-6-methylpyridin-3-yl)-5-methylisoxazol-4-yl)methyl)-5-(2-methoxypyridin-4-yl)pyridazin-3(2H)-one] | 0.0148 µM | 75% | 1.75 |
| Cc1ccc(-c2noc(C)c2Cn2ncc(N3CCN(C4CC4)[C@H](C)C3)cc2=O)cn1 [Example 59, 5-[(3R)-4-cyclopropyl-3-methyl-piperazin-1-yl]-2-[[5-methyl-3-(6-methyl-3-pyridyl)isoxazol-4-yl]methyl]pyridazin-3-one] | 0.0154 µM | 157% | 2.57 |
| Cc1ccc(-c2noc(C)c2Cn2ncc(N3CC(OCC(F)(F)F)C3)cc2=O)cn1 [Example 158, 2-[[5-methyl-3-(6-methyl-3-pyridyl)isoxazol-4-yl]methyl]-5-[3-(2,2,2-trifluoroethoxy)azetidin-1-yl]pyridazin-3-one] | 0.0096 µM | 96% | 1.96 |
| Cc1ccc(-c2noc(C)c2Cn2ncc(N3CC4(CC(F)CCO4)C3)cc2=O)cn1 (single isomer, unassigned) [Example 274] | 0.0158 µM | 110% | 2.1 |
| Cc1ccc(-c2noc(C)c2Cn2ncc(N3CCC3)cc2=O)cn1 [Example 97, 5-(azetidin-1-yl)-2-[[5-methyl-3-(6-methyl-3-pyridyl)isoxazol-4-yl]methyl]pyridazin-3-one] | 0.0086 µM | 106% | 2.06 |
| Cc1ccc(-c2noc(C)c2Cn2ncc(N3CC(OCC4CC4)C3)cc2=O)cn1 [Example 111, 5-[3-(cyclopropylmethoxy)azetidin-1-yl]-2-[[5-methyl-3-(6-methyl-3-pyridyl)isoxazol-4-yl]methyl]pyridazin-3-one] | 0.0346 µM | 147% | 2.47 |
| COc1ccc(-c2cnn(Cc3c(-c4ccc(C)nc4)noc3C)c(=O)c2)nc1 [Example 84, 5-(5-methoxypyridin-2-yl)-2-((5-methyl-3-(6-methylpyridin-3-yl)isoxazol-4-yl)methyl)pyridazin-3(2H)-one] | 0.085 µM | 89% | 1.89 |
| Cc1ccc(-c2noc(C)c2Cn2ncc(N3C[C@@H](C)O[C@@H](C)C3)cc2=O)cn1 [Example 7, 5-(cis-2,6-dimethylmorpholin-4-yl)-2-((5-methyl-3-(6-methylpyridin-3-yl)-1,2-oxazol-4-yl)methyl)pyridazin-3-one] | 0.001 µM | 253% | 3.53 |
| COc1cc(-c2cnn(Cc3c(-c4ccc(C)nc4)noc3C)c(=O)c2)cnc1OC [Example 179, 5-(5,6-dimethoxypyridin-3-yl)-2-((5-methyl-3-(6-methylpyridin-3-yl)isoxazol-4-yl)methyl)pyridazin-3(2H)-one] | 0.0297 µM | 133% | 2.33 |
| Cc1ccc(-c2noc(C)c2Cn2ncc(NCC3CCOCC3)cc2=O)cn1 [Example 88, 2-((5-methyl-3-(6-methylpyridin-3-yl)isoxazol-4-yl)methyl)-5-(((tetrahydro-2H-pyran-4-yl)methyl)amino)pyridazin-3(2H)-one] | 0.0334 µM | 103% | 2.03 |
| Cc1ncc(-c2noc(C)c2Cn2ncc(N(C)C)cc2=O)cc1F [Example 102, 5-(dimethylamino)-2-[[3-(5-fluoro-6-methyl-3-pyridyl)-5-methyl-isoxazol-4-yl]methyl]pyridazin-3-one] | 0.0131 µM | 86% | 1.86 |
| Cc1ccc(-c2noc(C)c2Cn2ncc(-c3cc(C)nc(C)c3)cc2=O)cn1 [Example 192, 5-(2,6-dimethylpyridin-4-yl)-2-((5-methyl-3-(6-methylpyridin-3-yl)isoxazol-4-yl)methyl)pyridazin-3(2H)-one] | 0.0064 µM | 221% | 3.21 |

Reference: patent publication US11840528B2 (Hoffmann-La Roche Inc., priority 2018, dated 2023)
